Key:
[1] = test system: XCL-1 hiPSC CRBN KO/KI; assay: LPM differentiation assay (FOXF1 high content imaging), XCL-1 CRBN KO/KI clone; type: cell-based, human; conditions: for IC50: Homo sapiens, 48 h, XCL-1 CRBN KO/KI, % FOXF1+ cells after 2 d in APEL2+GSKi, read-out: IC50 (±SEM) in LPM differentiation assay
Protocol: On the day after seeding, the medium was replaced with 100 µL/well of mTeSR-1 (control) or APEL2 + GSKi containing either DMSO or diluted compounds (for a final DMSO concentration of 0.2%). The same conditions were replenished the following day for a total of 2 d of differentiation, and the following day (3 d after seeding), the medium was aspirated, and hiPSCs were fixed in 10% NBF for 15 min at room temperature. For time-course experiments, cells were fixed at the specified intervals after the start of LPM differentiation.
(§2) Immunofluorescence staining was carried out by fixing/permeabilizing cells overnight in blocking buffer containing 3% BSA (Sigma) in DPBS-T, which contains DPBS + Ca^2+//Mg^2+ with 0.3% Triton-X100 (Sigma). Fixed and permeabilized cells were incubated in primary antibodies diluted (as noted in Table 1) in antibody buffer, consisting of 1% BSA in DPBS-T, overnight at 4 °C.
Cells were washed in blocking buffer for >6 hours at 4 °C and subsequently incubated in secondary antibody diluted in antibody buffer overnight at 4 °C. Secondary antibodies were washed out in antibody buffer for >4 h at 4 °C, and hiPSCs were counterstained with DAPI (Fisher) at 10 µg/mL in DPBS-T for 2 h. hiPSCs were washed in DPBS-T for >2 h at 4 °C, and immediately before imaging, the DPBS-T was replaced with DPBS. Initial characterization of LPM differentiation by immunofluorescence was carried out using the A1R confocal microscope (Nikon) equipped with 10X objective, and automated object analysis was carried out using NIS Elements v5 software (Nikon). Chemical dose-response experiments and experiments examining the time-course of marker expression during LPM differentiation were imaged at 10X magnification using the Cellomics ArrayScan or CellInsight Cx7 LZR High Content Screening Platform and HCS Studio Cell Analysis Software (Thermo Fisher). An artificial threshold was uniformly applied to all images to generate the percentage of DAPI+ nuclei that stained positively for FOXF1 or NANOG. Thresholding for FOXF1 and T was performed relative to undiffer-entiated hiPSCs, and thresholding for SALL4 and OCT4 was performed relative to a non-expressing cell type (human primary endothelial cells). Settings for image acquisition and processing were uniformly applied between XCL-1 clones. The capacity of all XCL-1 clones and Gibco hiPSCs to undergo LPM differentiation in the high content format was assessed by FOXF1 and NANOG immunostaining. […] Experiments were repeated in quadruplicate unless otherwise stated, and data are presented as mean ± SEM. Nonlinear regression analysis was performed using the 4-parameter [inhibitor]-vs-response curve fitting algorithm in Prism (GraphPad).
Using CRISPR/Cas9-mediated gene editing, both CRBN alleles were knocked out in XCL-1 hiPSCs cells, followed by the insertion at the AAVS1 locus of a transgene encoding human CRBN with E377V and V388I mutations (clone hereafter referred to as CRBN KO/KI).

[2] = test system: Gibco hiPSCs; assay: LPM differentiation assay (FOXF1 high content imaging), Gibco hiPSCs; conditions: for IC50: Homo sapiens, 48 h, read-out: IC50 (±SEM) in LPM differentiation assay
Protocol: (§3) hiPSCs (Gibco or XCL-1 clones) were grown in mTeSR-1 on Matrigel, passaged into small clumps with Versene (4.5 min under normal culture conditions), counted as a single-cell suspension as described above, and seeded as small clumps at approximately 10,000 cells/well (30,000 cells/cm^2, ~15% confluence) in 100 µL mTeSR1 on Matrigel-coated µClear® 96-well plates (Greiner) for 1 d under normal culture conditions. On the day after seeding, the medium was replaced with 100 µL/well of mTeSR-1 (control) or APEL2 + GSKi containing either DMSO or diluted compounds (for a final DMSO concentration of 0.2%). The same conditions were replenished the following day for a total of 2 d of differentiation, and the following day (3 d after seeding), the medium was aspirated, and hiPSCs were fixed in 10% NBF for 15 min at room temperature.
as §2
(§4) Cells were washed in blocking buffer for >6 hours at 4 °C and subsequently incubated in secondary antibody diluted in antibody buffer overnight at 4 °C. Secondary antibodies were washed out in antibody buffer for >4 h at 4 °C, and hiPSCs were counterstained with DAPI (Fisher) at 10 µg/mL in DPBS-T for 2 h. hiPSCs were washed in DPBS-T for >2 h at 4 °C, and immediately before imaging, the DPBS-T was replaced with DPBS. […] Chemical dose-response experiments and experiments examining the time-course of marker expression during LPM differentiation were imaged at 10X magnification using the Cellomics ArrayScan or CellInsight Cx7 LZR High Content Screening Platform and HCS Studio Cell Analysis Software (Thermo Fisher). An artificial threshold was uniformly applied to all images to generate the percentage of DAPI+ nuclei that stained positively for FOXF1 or NANOG. Thresholding for FOXF1 and T was performed relative to undiffer-entiated hiPSCs, and thresholding for SALL4 and OCT4 was performed relative to a non-expressing cell type (human primary endothelial cells). Settings for image acquisition and processing were uniformly applied between XCL-1 clones. […] Experiments were repeated in quadruplicate unless otherwise stated, and data are presented as mean ± SEM. Nonlinear regression analysis was performed using the 4-parameter [inhibitor]-vs-response curve fitting algorithm in Prism (GraphPad).

[3] = test system: XCL-1 hiPSC SALL4^G416A; assay: LPM differentiation assay (FOXF1 high content imaging), XCL-1 SALL4^G416A clone; conditions: Homo sapiens, 48 h, read-out: IC50 (±SEM) in LPM differentiation assay
Protocol: as §3, §2, §4
In addition, XCL-1 hiPSCs were engineered with CRISPR/Cas9 to express a homozygous SALL4 G416A mutation (hereafter referred to as the SALL4^G416A clone), and the homozygous SALL4 G416A mutation was confirmed by next-generation sequencing (Supplementary Fig. 2).

[4] = test system: XCL-1 hiPSC SALL4 Mock; assay: LPM differentiation assay (FOXF1 high content imaging), XCL-1 SALL4 Mock clone; conditions: Homo sapiens, 48 h, read-out: IC50 (±SEM) in LPM differentiation assay
Protocol: as §3, §2, §4

[5] = test system: XCL-1 hiPSC CRBN Mock; assay: LPM differentiation assay (FOXF1 high content imaging), XCL-1 CRBN Mock clone; type: cell-based; conditions: Homo sapiens, 48 h, % FOXF1+ cells after 2 d in APEL2+GSKi, read-out: IC50 (±SEM) in LPM differentiation assay
Protocol: On the day after seeding, the medium was replaced with 100 µL/well of mTeSR-1 (control) or APEL2 + GSKi containing either DMSO or diluted compounds (for a final DMSO concentration of 0.2%). The same conditions were replenished the following day for a total of 2 d of differentiation, and the following day (3 d after seeding), the medium was aspirated, and hiPSCs were fixed in 10% NBF for 15 min at room temperature.
as §2, §4

[6] = molecular target: T1, SALL4^G416A (Homo sapiens, UniProt Q9UJQ4, G416A); assay: SALL4 MFI by high content imaging, XCL-1 SALL4^G416A hiPSCs; type: cell-based; conditions: SALL4^G416A hiPSC clone, 8 h of treatment
T1 construct: parental hiPSCs were engineered to express a homozygous G416A mutation in the endogenous SALL4 locus; endogenous in cells; host or cells: XCL-1 SALL4^G416A hiPSC clone (1E6), CRISPR/Cas9 knock-in at the endogenous locus
T1 sequence (Q96SW2 whole entry partner): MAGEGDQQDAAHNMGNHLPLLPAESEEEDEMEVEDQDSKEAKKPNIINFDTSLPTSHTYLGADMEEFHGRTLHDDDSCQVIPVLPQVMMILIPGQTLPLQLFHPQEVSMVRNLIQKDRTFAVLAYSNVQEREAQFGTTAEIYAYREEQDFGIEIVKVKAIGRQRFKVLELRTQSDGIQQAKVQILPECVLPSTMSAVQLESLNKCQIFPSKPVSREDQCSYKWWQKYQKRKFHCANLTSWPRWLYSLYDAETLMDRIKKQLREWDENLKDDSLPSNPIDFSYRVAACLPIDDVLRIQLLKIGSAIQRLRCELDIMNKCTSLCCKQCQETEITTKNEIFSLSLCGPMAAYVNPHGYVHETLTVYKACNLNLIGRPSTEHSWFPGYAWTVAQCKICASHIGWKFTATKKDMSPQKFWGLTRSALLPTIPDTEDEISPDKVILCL
T1 sequence (Q16531 whole entry partner): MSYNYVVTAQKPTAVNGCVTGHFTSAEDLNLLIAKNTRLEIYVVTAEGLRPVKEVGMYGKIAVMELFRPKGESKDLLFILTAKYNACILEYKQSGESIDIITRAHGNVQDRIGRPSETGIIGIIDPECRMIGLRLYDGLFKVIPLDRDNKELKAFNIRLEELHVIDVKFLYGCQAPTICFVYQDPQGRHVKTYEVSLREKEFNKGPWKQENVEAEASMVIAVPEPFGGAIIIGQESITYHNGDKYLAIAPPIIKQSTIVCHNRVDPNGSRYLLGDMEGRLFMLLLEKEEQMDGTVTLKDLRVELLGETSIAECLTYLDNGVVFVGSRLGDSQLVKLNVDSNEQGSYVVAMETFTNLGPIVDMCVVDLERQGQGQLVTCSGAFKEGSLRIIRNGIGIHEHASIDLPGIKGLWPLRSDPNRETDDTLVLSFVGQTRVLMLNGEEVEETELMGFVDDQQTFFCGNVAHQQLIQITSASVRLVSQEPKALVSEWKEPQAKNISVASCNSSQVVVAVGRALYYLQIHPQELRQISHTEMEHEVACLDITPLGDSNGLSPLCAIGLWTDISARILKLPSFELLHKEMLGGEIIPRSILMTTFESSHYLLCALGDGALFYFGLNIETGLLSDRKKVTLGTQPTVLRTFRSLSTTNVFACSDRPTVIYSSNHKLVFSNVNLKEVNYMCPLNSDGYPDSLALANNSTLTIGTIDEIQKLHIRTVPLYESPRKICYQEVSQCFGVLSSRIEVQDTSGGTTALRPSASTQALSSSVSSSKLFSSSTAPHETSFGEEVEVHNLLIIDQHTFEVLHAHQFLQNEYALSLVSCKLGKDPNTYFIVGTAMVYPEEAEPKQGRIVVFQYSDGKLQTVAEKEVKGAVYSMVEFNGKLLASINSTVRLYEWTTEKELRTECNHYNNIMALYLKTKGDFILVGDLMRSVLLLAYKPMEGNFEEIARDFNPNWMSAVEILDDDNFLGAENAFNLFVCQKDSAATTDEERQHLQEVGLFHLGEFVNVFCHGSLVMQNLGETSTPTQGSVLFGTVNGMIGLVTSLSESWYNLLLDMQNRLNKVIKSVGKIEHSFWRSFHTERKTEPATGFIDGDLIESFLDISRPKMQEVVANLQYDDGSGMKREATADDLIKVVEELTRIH
T1 sequence (Q9UJQ4 whole entry G416A): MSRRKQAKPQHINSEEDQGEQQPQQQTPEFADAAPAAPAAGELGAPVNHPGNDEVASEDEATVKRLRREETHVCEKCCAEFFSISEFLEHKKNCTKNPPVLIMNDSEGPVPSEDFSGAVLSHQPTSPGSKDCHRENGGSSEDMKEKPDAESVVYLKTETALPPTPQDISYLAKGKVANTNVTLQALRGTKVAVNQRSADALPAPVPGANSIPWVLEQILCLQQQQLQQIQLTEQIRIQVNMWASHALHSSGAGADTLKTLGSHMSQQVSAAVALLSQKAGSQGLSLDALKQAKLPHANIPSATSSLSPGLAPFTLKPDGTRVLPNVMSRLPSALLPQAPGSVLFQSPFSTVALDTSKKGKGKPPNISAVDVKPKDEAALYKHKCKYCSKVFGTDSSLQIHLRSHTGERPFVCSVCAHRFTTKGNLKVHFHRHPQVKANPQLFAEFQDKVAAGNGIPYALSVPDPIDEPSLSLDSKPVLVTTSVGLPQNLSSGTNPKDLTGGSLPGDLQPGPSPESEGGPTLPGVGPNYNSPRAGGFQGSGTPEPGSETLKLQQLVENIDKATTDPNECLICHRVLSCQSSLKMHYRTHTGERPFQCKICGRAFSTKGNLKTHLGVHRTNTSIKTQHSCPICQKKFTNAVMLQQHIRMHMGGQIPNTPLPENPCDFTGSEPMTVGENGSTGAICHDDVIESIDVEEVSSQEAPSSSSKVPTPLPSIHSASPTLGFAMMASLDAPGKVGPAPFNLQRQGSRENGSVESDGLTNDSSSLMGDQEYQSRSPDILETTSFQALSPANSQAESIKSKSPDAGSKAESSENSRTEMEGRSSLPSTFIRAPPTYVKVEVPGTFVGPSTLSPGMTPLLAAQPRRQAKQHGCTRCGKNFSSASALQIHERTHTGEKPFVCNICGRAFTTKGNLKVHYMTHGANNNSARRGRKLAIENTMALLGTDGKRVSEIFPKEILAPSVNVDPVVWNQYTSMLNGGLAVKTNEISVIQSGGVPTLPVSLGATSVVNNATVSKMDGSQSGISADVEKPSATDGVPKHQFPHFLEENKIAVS
Source text: (§1) High content imaging analysis of SALL4 immunofluorescence with DAPI counterstaining in hiPSCs. […] Data represent the mean +/− SEM from 2 independent experiments.

[7] = test system: hiPSCs; assay: Viability of hiPSCs in 3D culture (CellTiter Glo 3D); type: cell-based, human; conditions: 20 µM thalidomide or 3 µM atRA, 2 d LPM differentiation in 3D fibrin
Protocol: Supplementary Figure 10. Normalized viability of hiPSCs differentiated to LPM for 2 days in 3D […]
µM atRA. Data represent replicate wells in a single experiment, n=6, of hiPSCs that were cultured in fibrin for 1 day in mTeSR1 followed by 2 days of culture in APEL2+GSKi in the presence of either 0.1% […]
differentiation, the medium was replaced with CellTiter Glo 3D reagent (diluted 1:1 in DPBS), and luminescence was measured on a plate reader.
Normalized luminescence is reported as mean +/- SD of 6 replicate wells per condition. No statistical differences was observed via one-way ANOVA and Dunnett’s post-hoc test (α=0.05).
(1 picture or pasted object on this page, not shown here)

[8] = molecular target: T2, SALL4 (Homo sapiens, UniProt Q96SW2+Q9UJQ4); assay: SALL4 nuclear protein expression (MFI) by high content imaging, Gibco hiPSCs; type: cell-based
T2 construct: Unmodified Gibco hiPSCs were either differentiated in APEL2 + GSKi or maintained in mTeSR1, and SALL4 nuclear protein expression was monitored; endogenous in cells; host or cells: Gibco hiPSCs; XCL-1 SALL4 mock hiPSC clone
T2 sequence (Q9UJQ4 whole entry): as the sequence (Q9UJQ4 whole entry G416A) above, with A416G counted along it
T2 sequence (Q96SW2 whole entry): as the sequence (Q96SW2 whole entry partner) above
T2 sequence (Q16531 whole entry partner): as the sequence (Q16531 whole entry partner) above
Source text: as §1

Row | SMILES | inhibition of LPM differentiation at the highest concentration tested ([1]; 50 µM, CRBN KO/KI clone) | IC50 [1] [nM] | IC50 [2] [nM] | reduction of %FOXF1+ cells via high content imaging ([2]; thalidomide at 20 µM, atRA at 3 µM, during LPM differentiation) [%] | IC50 [3] [nM] | IC50 [4] [nM] | IC50 [5] [nM] | effect on SALL4 MFI [6] | normalized viability (CellTiter Glo 3D) versus DMSO [7] | time-course of SALL4 MFI ([8]; 20 µM, Gibco hiPSCs in mTeSR1 or APEL2+GSKi, 2, 8 and 24 h after dosing) | effect on SALL4 MFI ([8]; Gibco hiPSCs, 8 h of treatment, dose-response)
1 | O=C1CCC(N2C(=O)c3ccccc3C2=O)C(=O)N1 (stereo not drawn) [Thalidomide, thalidomide] | inhibited LPM differentiation albeit not to the same magnitude as control hiPSCs | > 50000 | 310 ± 190 | 30 | > 50000 | 690 ± 500 | 560 ± 450 | unchanged | No statistical differences | rapid decline in SALL4 MFI 2 h after dosing | 
2 | CC1=C(/C=C/C(C)=C/C=C/C(C)=C/C(=O)O)C(C)(C)CCC1 [atRA, all-trans retinoic acid] |  | 8170 ± 5100 | 820 ± 780 |  | 9100 ± 5900 | 2940 ± 1200 | 2700 ± 2000 | unchanged | No statistical differences |  | did not reduce SALL4 MFI

Source: paper PMC7046148 (Scientific Reports, 2020)
